ChEMBL document CHEMBL3046948, “Synthesis and SAR investigation of natural phenylpropene-derived methoxylated cinnamaldehydes and their novel Schiff bases as potent antimicrobial and antioxidant agents” (2013)
In brackets after ≈: the same amount, converted by molar mass. Activity calls are given as the source filed them. The calls are words filed in the database; no cut-off is given here.

How the values were obtained:
Format in all cases: functional
[1] = system: Aspergillus sydowii; assay: Antimicrobial activity against Aspergillus sydowii MTCC 4335 assessed as growth inhibition after 5 days by broth microdilution method
[2] = system: Aspergillus parasiticus; assay: Antimicrobial activity against Aspergillus parasiticus MTCC 2797 assessed as growth inhibition after 5 days by broth microdilution method
[3] = system: Aspergillus niger; assay: Antimicrobial activity against Aspergillus niger MTCC 404 assessed as growth inhibition after 5 days by broth microdilution method
[4] = system: Pichia kudriavzevii; assay: Antimicrobial activity against Pichia kudriavzevii MTCC 231 assessed as growth inhibition after 24 hr by broth microdilution method
[5] = system: Candida albicans; assay: Antimicrobial activity against Candida albicans MTCC 3017 assessed as growth inhibition after 24 hr by broth microdilution method
[6] = system: Enterobacter cloacae; assay: Antimicrobial activity against Enterobacter cloacae MTCC 509 assessed as growth inhibition after 24 hr by broth microdilution method
[7] = system: Pseudomonas aeruginosa; assay: Antimicrobial activity against Pseudomonas aeruginosa MTCC 424 assessed as growth inhibition after 24 hr by broth microdilution method
[8] = system: Klebsiella pneumoniae; assay: Antimicrobial activity against Klebsiella pneumoniae MTCC 109 assessed as growth inhibition after 24 hr by broth microdilution method
[9] = system: Escherichia coli; assay: Antimicrobial activity against Escherichia coli MTCC 43 assessed as growth inhibition after 24 hr by broth microdilution method
[10] = system: Burkholderia cepacia; assay: Antimicrobial activity against Burkholderia cepacia MTCC 438 assessed as growth inhibition after 24 hr by broth microdilution method
[11] = system: Micrococcus luteus; assay: Antimicrobial activity against Micrococcus luteus MTCC 2470 assessed as growth inhibition after 24 hr by broth microdilution method
[12] = system: Bacillus subtilis; assay: Antimicrobial activity against Bacillus subtilis MTCC 121 assessed as growth inhibition after 24 hr by broth microdilution method
[13] = system: Staphylococcus aureus; assay: Antimicrobial activity against Staphylococcus aureus MTCC 3160 assessed as growth inhibition after 24 hr by broth microdilution method
[14] = system: Radical scavenging activity; assay: Antioxidant activity assessed as inhibition of DPPH radical formation at 2 mg/ml after 30 min by spectrophotometric analysis
[15] = system: Trichophyton rubrum; assay: Antimicrobial activity against Trichophyton rubrum MTCC 296 assessed as growth inhibition after 5 days by broth microdilution method

Structure (SMILES) | MIC ([1]; MTCC 4335, 120 h) | MIC ([2]; MTCC 2797, 120 h) | MIC ([3]; MTCC 404, 120 h) | MIC ([4]; MTCC 231, 24 h) | MIC ([5]; MTCC 3017, 24 h) | MIC [6] | MIC [7] | MIC [8] | MIC ([10]; MTCC 438, 24 h) | MIC ([11]; MTCC 2470, 24 h) | MIC ([12]; MTCC 121, 24 h) | MIC ([13]; MTCC 3160, 24 h) | MIC ([15]; MTCC 296, 120 h) | MIC ([6]; MTCC 509, 24 h) | MIC ([7]; MTCC 424, 24 h) | MIC ([8]; MTCC 109, 24 h) | MIC ([9]; MTCC 43, 24 h) | MIC [2] | MIC [3] | inhibition [14] | further results
O=C(O)/C=C/c1ccccc1 [CINNAMIC ACID] | 1680 µM (≈ 249 µg/mL) | 3370 µM (≈ 499 µg/mL) | 1680 µM (≈ 249 µg/mL) | 840 µM (≈ 124 µg/mL) | 420 µM (≈ 62.2 µg/mL) |  |  |  | 6750 µM (≈ 1000 µg/mL) | 6750 µM (≈ 1000 µg/mL) | 6750 µM (≈ 1000 µg/mL) | 3370 µM (≈ 499 µg/mL) | 420 µM (≈ 62.2 µg/mL) | 6750 µM (≈ 1000 µg/mL) | 13500 µM (≈ 2000 µg/mL) | 6750 µM (≈ 1000 µg/mL) | 13500 µM (≈ 2000 µg/mL) |  |  |  | 
Cc1cc(C(C)(C)C)c(O)c(C(C)(C)C)c1 |  |  |  |  |  |  |  |  |  |  |  |  |  |  |  |  |  |  |  | 91.6% | 
O=CCCc1ccccc1 [DIHYDROCINNAMALDEHYDE] | 3720 µM (≈ 499 µg/mL) | 14900 µM (≈ 2000 µg/mL) | 7450 µM (≈ 1000 µg/mL) | 3720 µM (≈ 499 µg/mL) | 3720 µM (≈ 499 µg/mL) |  |  |  | 14900 µM (≈ 2000 µg/mL) | 7450 µM (≈ 1000 µg/mL) | 7450 µM (≈ 1000 µg/mL) | 14900 µM (≈ 2000 µg/mL) | 3720 µM (≈ 499 µg/mL) | 7450 µM (≈ 1000 µg/mL) | 7450 µM (≈ 1000 µg/mL) | 7450 µM (≈ 1000 µg/mL) | 7450 µM (≈ 1000 µg/mL) |  |  |  | 
COc1cc(OC)c(OC)cc1/C=C/C=O | 4500 µM (≈ 1000 µg/mL) |  |  | 8990 µM (≈ 2000 µg/mL) | 8990 µM (≈ 2000 µg/mL) | inactive | inactive | inactive |  | 2250 µM (≈ 500 µg/mL) |  |  | 8990 µM (≈ 2000 µg/mL) |  |  |  |  | inactive | inactive |  | MIC [9]: inactive; MIC [10]: inactive; MIC [12]: inactive; MIC [13]: inactive
Cc1ccc(/C=C/C=O)c([N+](=O)[O-])c1 |  |  |  |  |  |  |  |  | 2610 µM (≈ 499 µg/mL) | 2610 µM (≈ 499 µg/mL) | 2610 µM (≈ 499 µg/mL) | 10500 µM (≈ 2000 µg/mL) |  | 10500 µM (≈ 2000 µg/mL) | 2610 µM (≈ 499 µg/mL) | 10500 µM (≈ 2000 µg/mL) | 2610 µM (≈ 499 µg/mL) | inactive | inactive |  | MIC [1]: inactive; MIC [4]: inactive; MIC [5]: inactive; MIC [15]: inactive
CC(C)OC(=O)/C=C/c1ccccc1 |  |  |  |  |  | inactive | inactive | inactive |  |  |  |  |  |  |  |  |  | inactive | inactive |  | MIC [1]: inactive; MIC [4]: inactive; MIC [5]: inactive; MIC [9]: inactive; MIC [10]: inactive; MIC [11]: inactive; MIC [12]: inactive; MIC [13]: inactive; MIC [15]: inactive

Further compounds by falling MIC ([11]; MTCC 2470, 24 h), results first:

MIC ([1]; MTCC 4335, 120 h) | MIC ([2]; MTCC 2797, 120 h) | MIC ([3]; MTCC 404, 120 h) | MIC ([4]; MTCC 231, 24 h) | MIC ([5]; MTCC 3017, 24 h) | MIC [6] | MIC [7] | MIC [8] | MIC ([10]; MTCC 438, 24 h) | MIC ([11]; MTCC 2470, 24 h) | MIC ([12]; MTCC 121, 24 h) | MIC ([13]; MTCC 3160, 24 h) | MIC ([15]; MTCC 296, 120 h) | MIC ([6]; MTCC 509, 24 h) | MIC ([7]; MTCC 424, 24 h) | MIC ([8]; MTCC 109, 24 h) | MIC ([9]; MTCC 43, 24 h) | MIC [2] | MIC [3] | Structure (SMILES) | inhibition [14] | further results
1930 µM (≈ 499 µg/mL) | 3870 µM (≈ 1000 µg/mL) | 3870 µM (≈ 1000 µg/mL) | 970 µM (≈ 251 µg/mL) | 970 µM (≈ 251 µg/mL) |  | inactive |  | 1930 µM (≈ 499 µg/mL) | 970 µM (≈ 251 µg/mL) | 120 µM (≈ 31 µg/mL) | 480 µM (≈ 124 µg/mL) | 970 µM (≈ 251 µg/mL) | 480 µM (≈ 124 µg/mL) |  | 970 µM (≈ 251 µg/mL) | 970 µM (≈ 251 µg/mL) |  |  | C(=C\c1ccc2c(c1)OCO2)/C=N/c1nccs1 | 3.91% | 
850 µM (≈ 249 µg/mL) | 1700 µM (≈ 499 µg/mL) | 1700 µM (≈ 499 µg/mL) | 1700 µM (≈ 499 µg/mL) | 1700 µM (≈ 499 µg/mL) | inactive | inactive | inactive | 1700 µM (≈ 499 µg/mL) | 850 µM (≈ 249 µg/mL) | 850 µM (≈ 249 µg/mL) | 850 µM (≈ 249 µg/mL) | 1700 µM (≈ 499 µg/mL) |  |  |  |  |  |  | CC(=O)c1ccc(/N=C/C=C/c2ccc3c(c2)OCO3)cc1 | 4.49% | MIC [9]: inactive
 |  |  | 1620 µM (≈ 500 µg/mL) | 810 µM (≈ 250 µg/mL) |  |  |  | 810 µM (≈ 250 µg/mL) | 200 µM (≈ 61.7 µg/mL) | 400 µM (≈ 123 µg/mL) | 200 µM (≈ 61.7 µg/mL) | 810 µM (≈ 250 µg/mL) | 810 µM (≈ 250 µg/mL) | 810 µM (≈ 250 µg/mL) | 810 µM (≈ 250 µg/mL) | 810 µM (≈ 250 µg/mL) | inactive | inactive | C(=C\c1ccc2c(c1)OCO2)/C=N/c1nc2ccccc2s1 | 3.55% | MIC [1]: inactive
